IC50 data for 33 compounds are collected here from patent US9694016B2 (Novartis AG, priority 2013, dated 2017).

Sequence of b-Raf (V600E) (P15056 whole entry V600E): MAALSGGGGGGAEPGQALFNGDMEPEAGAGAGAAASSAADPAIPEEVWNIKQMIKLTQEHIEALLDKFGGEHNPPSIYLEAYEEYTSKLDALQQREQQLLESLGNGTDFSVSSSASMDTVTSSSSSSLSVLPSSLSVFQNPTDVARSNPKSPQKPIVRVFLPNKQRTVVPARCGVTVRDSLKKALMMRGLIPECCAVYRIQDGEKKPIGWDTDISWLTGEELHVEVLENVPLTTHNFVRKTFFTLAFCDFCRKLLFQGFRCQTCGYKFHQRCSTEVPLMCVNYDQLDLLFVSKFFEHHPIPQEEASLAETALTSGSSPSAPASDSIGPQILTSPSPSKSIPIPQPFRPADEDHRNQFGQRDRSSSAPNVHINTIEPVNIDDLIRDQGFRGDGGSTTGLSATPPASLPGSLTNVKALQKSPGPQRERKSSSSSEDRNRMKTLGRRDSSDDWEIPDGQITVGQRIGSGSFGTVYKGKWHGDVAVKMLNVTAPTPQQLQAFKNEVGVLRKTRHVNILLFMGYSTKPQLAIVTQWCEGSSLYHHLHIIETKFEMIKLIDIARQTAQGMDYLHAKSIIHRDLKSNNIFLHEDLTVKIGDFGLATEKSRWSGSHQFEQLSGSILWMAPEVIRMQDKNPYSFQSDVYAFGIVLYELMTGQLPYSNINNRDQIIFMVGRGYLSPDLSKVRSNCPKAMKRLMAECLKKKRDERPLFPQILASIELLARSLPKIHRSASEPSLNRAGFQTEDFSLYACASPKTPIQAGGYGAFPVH

One experiment addresses b-Raf (V600E) (Homo sapiens (Human), UniProt P15056, V600E). To be noted: read-out: b-Raf IC-50; AlphaScreen, 60 min pre-incubation, 3 hours reaction. In general terms: In Alpha technology, singlet oxygen from a donor bead excites a nearby acceptor bead.
Turning to `Cc1ccc(NC(=O)c2ccnc(C(C)(F)F)c2)cc1-c1cc(N2CCOCC2)c2nccn2n1` [Example 843, 2-(1,1-difluoroethyl)-N-(4-methyl-3-(8-morpholinoimidazo[1,2-b]pyridazin-6-yl)phenyl)isonicotinamide], the IC50 is 0.8 nM. `Cc1ccc(NC(=O)c2ccnc(C(C)(C)C#N)c2)cc1-c1cc(N2CCOCC2)c2nccn2n1` [Example 844, 2-(2-cyanopropan-2-yl)-N-(4-methyl-3-(8-morpholinoimidazo[1,2-b]pyridazin-6-yl)phenyl)isonicotinamide]: the IC50 is 1.7 nM. On the same count and under the same terms, in the case of `Cc1ccc(NC(=O)c2ccnc(C(C)(C)C)c2)cc1-c1cc(N2CCOCC2)c2nccn2n1` [Example 845, 2-(tert-butyl)-N-(4-methyl-3-(8-morpholinoimidazo[1,2-b]pyridazin-6-yl)phenyl)isonicotinamide] it was 0.9 nM; in that of `Cc1ccc(NC(=O)c2cccc(C(C)(C)C#N)c2)cc1-c1cc(N2CCOCC2)c2nccn2n1` [Example 846, 3-(2-cyanopropan-2-yl)-N-(4-methyl-3-(8-morpholinoimidazo[1,2-b]pyridazin-6-yl)phenyl)benzamide], 0.6 nM; in that of `Cc1ccc(NC(=O)c2cccc(C(F)F)c2)cc1-c1cc(N2CCOCC2)c2nccn2n1` [Example 847, 3-(difluoromethyl)-N-(4-methyl-3-(8-morpholinoimidazo[1,2-b]pyridazin-6-yl)phenyl)benzamide], 0.2 nM.

Still in this experiment, the particulars now being: read-out: b-Raf IC-50; AlphaScreen, 60 min pre-incubation, reaction 3 hours at room temperature.
Consider `Cc1ccc(NC(=O)c2ccnc(C(F)(F)F)c2)cc1-c1cc(N2CCOCC2)c2nccn2c1` [Example 849, N-(4-methyl-3-(8-morpholinoimidazo[1,2-a]pyridin-6-yl)phenyl)-2-(trifluoromethyl)isonicotinamide], for which the IC50 amounted to 3.8 nM. Still for that read-out and setting: the same measure for `Cc1ccc(NC(=O)c2ccnc(C(F)F)c2)cc1-c1cc(N2CCOCC2)c2nccn2c1` [Example 850, 2-(difluoromethyl)-N-(4-methyl-3-(8-morpholinoimidazo[1,2-a]pyridin-6-yl)phenyl)isonicotinamide]: 0.6 nM. Still for that read-out and setting: in the case of `Cc1ccc(NC(=O)c2ccnc(S(C)(=O)=O)c2)cc1-c1cc(N2CCOCC2)c2nccn2c1` [Example 851] it was 0.9 nM.

`Cc1ccc(NC(=O)c2cnnc(C(F)(F)F)c2)cc1-c1cc(N2CCOCC2)c2nccn2c1` [Example 852]: the IC50 turned out to be 0.7 nM. As to `Cc1ccc(NC(=O)c2cccc(C(F)F)c2)cc1-c1nc2c(c(N3CCOCC3)n1)S(=O)(=O)CC2` [Example 854, 3-(difluoromethyl)-N-(4-methyl-3-(4-morpholino-5,5-dioxido-6,7-dihydrothieno[3,2-d]pyrimidin-2-yl)phenyl)benzamide], the IC50 worked out at 0.8 nM. Still for that read-out and setting: in the case of `Cc1ccc(NC(=O)c2ccnc(C(C)(C)C#N)c2)cc1-c1nc2c(c(N3CCOCC3)n1)S(=O)(=O)CC2` [Example 855, 2-(2-cyanopropan-2-yl)-N-(4-methyl-3-(4-morpholino-5,5-dioxido-6,7-dihydrothieno[3,2-d]pyrimidin-2-yl)phenyl)isonicotinamide] it was 2.3 nM; in that of `Cc1ccc(NC(=O)c2ccnc(C(F)F)c2)cc1-c1nc2c(c(N3CCOCC3)n1)S(=O)(=O)CC2` [Example 856, 2-(difluoromethyl)-N-(4-methyl-3-(4-morpholino-5,5-dioxido-6,7-dihydrothieno[3,2-d]pyrimidin-2-yl)phenyl)isonicotinamide], 5.5 nM; in that of `Cc1ccc(NC(=O)c2cccc(C(F)(F)F)c2)cc1-c1nc2c(c(N3CCOCC3)n1)S(=O)(=O)CC2` [Example 857, N-(4-methyl-3-(4-morpholino-5,5-dioxido-6,7-dihydrothieno[3,2-d]pyrimidin-2-yl)phenyl)-3-(trifluoromethyl)benzamide], 0.4 nM.

As for `Cc1ccc(NC(=O)c2ccnc(C(C)(C)C#N)c2)cc1-c1cn2ccnc2c(N2CCOCC2)n1` [Example 860, 2-(2-cyanopropan-2-yl)-N-(4-methyl-3-(8-morpholinoimidazo[1,2-a]pyrazin-6-yl)phenyl)isonicotinamide], the IC50 came out at 11.6 nM. Still for that read-out and setting: in the case of `Cc1ccc(NC(=O)c2ccnc(C(C)(C)C#N)c2)cc1-c1nc(N2CCOCC2)c2c(cnn2C)n1` [Example 861, 2-(2-cyanopropan-2-yl)-N-(4-methyl-3-(1-methyl-7-morpholino-1H-pyrazolo[4,3-d]pyrimidin-5-yl)phenyl)isonicotinamide] it was 2.5 nM. On to `Cc1ccc(NC(=O)c2ccnc(C(C)(C)C#N)c2)cc1-c1nc(N2CCOCC2)c2sccc2n1` [Example 862, 2-(2-cyanopropan-2-yl)-N-(4-methyl-3-(4-morpholinothieno[3,2-d]pyrimidin-2-yl)phenyl)isonicotinamide], for which the IC50 was determined as 0.9 nM. With `Cc1ccc(NC(=O)c2ccnc(C(C)(C)C#N)c2)cc1-c1nc(N2CCOCC2)c2[nH]ccc2n1` [Example 863, 2-(2-cyanopropan-2-yl)-N-(4-methyl-3-(4-morpholino-5H-pyrrolo[3,2-d]pyrimidin-2-yl)phenyl)isonicotinamide], the IC50 came to 2.8 nM. Still for that read-out and setting: in the case of `Cc1ccc(NC(=O)c2ccnc(C(C)(C)C#N)c2)cc1-c1nc2c(c(N3CCOCC3)n1)CN(C(=O)OC(C)(C)C)CC2` [Example 864, tert-butyl 2-(5-(2-(2-cyanopropan-2-yl)isonicotinamido)-2-methylphenyl)-4-morpholino-7,8-dihydropyrido[4,3-d]pyrimidine-6(5H)-carboxylate] it was 70.2 nM; in that of `Cc1ccc(NC(=O)c2ccnc(C(C)(C)C#N)c2)cc1-c1nc2c(c(N3CCOCC3)n1)CCNC2` [Example 865, 2-(2-cyanopropan-2-yl)-N-(4-methyl-3-(4-morpholino-5,6,7,8-tetrahydropyrido[3,4-d]pyrimidin-2-yl)phenyl)isonicotinamide], 3700 nM; in that of `Cc1ccc(NC(=O)c2ccnc(C(C)(C)C#N)c2)cc1-c1nc2c(c(N3CCOCC3)n1)CNC2` [Example 866, 2-(2-cyanopropan-2-yl)-N-(4-methyl-3-(4-morpholino-6,7-dihydro-5H-pyrrolo[3,4-d]pyrimidin-2-yl)phenyl)isonicotinamide], 7.6 nM. Still for that read-out and setting: the same measure for `Cc1ncc(NC(=O)c2cccc(C(F)(F)F)c2)cc1-c1cc(N2CCOCC2)c2nccn2n1` [Example 867, N-(6-methyl-5-(8-morpholinoimidazo[1,2-b]pyridazin-6-yl)pyridin-3-yl)-3-(trifluoromethyl)benzamide]: 1.4 nM.

Turning to `Cc1ncc(NC(=O)c2cc(C(F)(F)F)ccn2)cc1-c1cc(N2CCOCC2)c2nccn2n1` [Example 868, N-(6-methyl-5-(8-morpholinoimidazo[1,2-b]pyridazin-6-yl)pyridin-3-yl)-4-(trifluoromethyl)picolinamide], the IC50 is 1.3 nM.

Consider `Cc1ncc(NC(=O)c2ccnc(C(C)C)c2)cc1-c1cc(N2CCOCC2)c2nccn2n1` [Example 869, 2-isopropyl-N-(6-methyl-5-(8-morpholinoimidazo[1,2-b]pyridazin-6-yl)pyridin-3-yl)isonicotinamide], for which the IC50 came to 1.3 nM. Same read-out and setting: in the case of `Cc1ncc(NC(=O)c2ccnc(C(C)(C)O)c2)cc1-c1cc(N2CCOCC2)c2nccn2n1` [Example 870, 2-(2-hydroxypropan-2-yl)-N-(6-methyl-5-(8-morpholinoimidazo[1,2-b]pyridazin-6-yl)pyridin-3-yl)isonicotinamide] it was 7.5 nM; in that of `Cc1ncc(NC(=O)c2ccnc(C(C)(F)F)c2)cc1-c1cc(N2CCOCC2)c2nccn2n1` [Example 871, 2-(1,1-difluoroethyl)-N-(6-methyl-5-(8-morpholinoimidazo[1,2-b]pyridazin-6-yl)pyridin-3-yl)isonicotinamide], 0.6 nM; in that of `Cc1ncc(NC(=O)c2ccc(C(O)CO)c(C(F)(F)F)c2)cc1-c1cc(N2CCOCC2)c2nccn2n1` (stereo not drawn) [Example 873, 4-(1,2-dihydroxyethyl)-N-(6-methyl-5-(8-morpholinoimidazo[1,2-b]pyridazin-6-yl)pyridin-3-yl)-3-(trifluoromethyl)benzamide], 2.8 nM. Still for that read-out and setting: in the case of `Cc1ncc(NC(=O)c2ccc(C#N)c(C(F)(F)F)c2)cc1-c1cc(N2CCOCC2)c2nccn2c1` [Example 877, 4-cyano-N-(6-methyl-5-(8-morpholinoimidazo[1,2-a]pyridin-6-yl)pyridin-3-yl)-3-(trifluoromethyl)benzamide] it was 6.5 nM; in that of `Cc1ncc(NC(=O)c2ccnc(C(C)(C)O)c2)cc1-c1cc(N2CCOCC2)c2nccn2c1` [Example 878, 2-(2-hydroxypropan-2-yl)-N-(6-methyl-5-(8-morpholinoimidazo[1,2-a]pyridin-6-yl)pyridin-3-yl)isonicotinamide], 100 nM. Same read-out and setting: in the case of `Cc1ncc(NC(=O)c2ccnc(C(C)(F)F)c2)cc1-c1cc(N2CCOCC2)c2nccn2c1` [Example 879, 2-(1,1-difluoroethyl)-N-(6-methyl-5-(8-morpholinoimidazo[1,2-a]pyridin-6-yl)pyridin-3-yl)isonicotinamide] it was 6.1 nM; in that of `Cc1ncc(NC(=O)c2cccc(C(F)F)c2)cc1-c1cc(N2CCOCC2)c2nccn2c1` [Example 880, 3-(difluoromethyl)-N-(6-methyl-5-(8-morpholinoimidazo[1,2-a]pyridin-6-yl)pyridin-3-yl)benzamide], 3.2 nM; in that of `Cc1ncc(NC(=O)c2ccnc(C(C)(C)C#N)c2)cc1-c1cc(N2CCOCC2)c2nccn2c1` [Example 881, 2-(2-cyanopropan-2-yl)-N-(6-methyl-5-(8-morpholinoimidazo[1,2-a]pyridin-6-yl)pyridin-3-yl)isonicotinamide], 32.6 nM. In the case of `Cc1ncc(NC(=O)c2ccnc(C(C)C)c2)cc1-c1cc(N2CCOCC2)c2nccn2c1` [Example 882, 2-isopropyl-N-(6-methyl-5-(8-morpholinoimidazo[1,2-a]pyridin-6-yl)pyridin-3-yl)isonicotinamide], the IC50 came to 8.1 nM. Still for that read-out and setting: in the case of `Cc1ncc(NC(=O)c2cccc(C(F)(F)F)c2)cc1-c1cc(N2CCOCC2)c2nccn2c1` [Example 883, N-(6-methyl-5-(8-morpholinoimidazo[1,2-a]pyridin-6-yl)pyridin-3-yl)-3-(trifluoromethyl)benzamide] it was 1.7 nM.
